Publication PMC10080127, “Metabolic stability and metabolite profiling of emerging synthetic cathinones” (Frontiers in Pharmacology, 2023)

Key:
[1] = Phase II (glucuronidation) metabolite generation in alamethicin-induced HLM with NADPH and UDPGA; format: in vitro ADME, human; conditions: 2 h, LC-HRMS/MS
Procedure: For the generation of Phase II metabolites, alamethicine-induced HLM ([Fisher et al., 2000]) were used in the presence of Phase I and glucuronidation co-factor. Briefly, HLM (1 mg/mL) were preincubated for 15 min, in ice, with alamethicin (25 μg/mL) in 50 mM ABIC buffer at pH 7.4, for a total incubation volume of 200 μL. Following the addition of MgCl2 (2 mM; 1 μL) and selected cathinone (10 μM final concentration), the resulting solution was incubated for 5 min at 37°. NADPH (5 mM) and UDPGA (5 mM) were then added to start the Phase I and II reactions. Incubations were run in duplicate.
An in-house accurate mass library was first built, considering the metabolic pathways already known for other structurally similar cathinones, and a targeted screening was then carried out by performing extracted ion chromatograms (EIC), with a mass window of ±5 ppm, for the protonated/deprotonated molecules of the expected metabolites in the full scan spectra. Isotope cluster analysis was also used to identify chlorinated metabolites. All spectra corresponding to metabolites were then manually checked. The mass deviation from the accurate mass of the identified cathinone metabolites remained below 5 ppm for the precursor and below 10 ppm for product ions. Candidates present in control incubations and/or without MS/MS data were excluded. […] Metabolites were ranked based on their relative abundance over incubation time (Figures 2–9). The relative abundance was calculated by the ratio of the relative area of each metabolite and the sum of the relative areas obtained for all metabolites and for the respective parent cathinone.

[2] = Metabolic stability (substrate depletion) in human liver microsome Phase I incubations; conditions: for intrinsic clearance (CLint): HLM incubations, scaled with 45 mg microsomal protein/g liver and 26 g liver/kg b.w.; for half-life at 10 μM: human, human liver microsomes
[3] = set-up: method as in Wagmann et al., 2020; conditions: ref Wagmann et al., 2020; cited from earlier work
[4] = pH 7.4, clearance classification based on t1/2, HLM, scoring proposed by McNaney et al. (2008)
[5] = pH 7.4, half-life (t1/2), HLM 1 mg/mL, cathinone 10 μM, NADPH, 37°C, pH 7.4

SMILES | Phase II (glucuronide) metabolites identified [1] | intrinsic clearance (CLint) [2] | half-life at 10 μM [2, 4] | half-life at 10 μM [2, 5] | half-life (t1/2) reported [3]
CCC(C(=O)c1ccc(C)cc1)N(C)C (stereo not shown) [4-MDMB, 4′-methyl-N,N-dimethylbufedrone] | No Phase II metabolite was detected | 54 mLmin^−1 kg^−1 | < 20 min | 15 min | 
CCCC(C(=O)c1ccc(C)cc1)N(C)C (stereo not shown) [4-MDMP, 4′-methyl-N,N-dimethylpentedrone] | No Phase II metabolites were identified | 18 mLmin^−1 kg^−1 |  | 46 min | 
CCNC(CC)C(=O)c1ccc(C)cc1 (stereo not shown) [4-MNEB, 4′-methyl-N-ethylbufedrone] | No Phase II metabolites were identified | 16 mLmin^−1 kg^−1 |  | 55 min | 
CCNC(C)C(=O)c1ccc(Cl)cc1 (stereo not shown) [4-CEC, 4-chloroethcathinone] |  |  |  |  | 105 min
CNC(C)C(=O)c1ccc(Cl)cc1 (stereo not shown) [4-CMC, 4′-chloromethcathinone] | no Phase II metabolite was identified | 10 mLmin^−1 kg^−1 | > 60 min | 78 min | 
CCCC(NCC)C(=O)c1ccc(C)cc1 (stereo not shown) [4-MEAP, 4′-methyl-N-ethylnorpentedrone] | no glucuronide metabolite was identified | 33 mLmin^−1 kg^−1 |  | 24 min | 
CC(C)NC(C)C(=O)c1ccc(Cl)cc1 (stereo not shown) [4-CIC, 4′-chloro-N-isopropylcathinone] |  | 22 mLmin^−1 kg^−1 |  | 36 min | 
CNC(C)C(=O)c1cccc(Cl)c1 (stereo not shown) [3-CMC, 3′-chloromethcathinone] | No Phase II metabolites were identified | 15 mLmin^−1 kg^−1 |  | 54 min | 
CC(C)NC(C)C(=O)c1cccc(Cl)c1 (stereo not shown) [3-CIC, 3′-chloro-N-isopropylcathinone] |  | 34 mLmin^−1 kg^−1 |  | 24 min | 
